Reference: patent publication US11679100B2, “Methods of enhancing immunity” (The Regents of the University of California, priority 2018, dated 2023)

Legend:
[1] = system: LLC cells and macrophages; assay: In vitro proliferation of LLC cells and macrophages; format: cell-based, murine
CL66-luc tumor cell = assay: Cytotoxicity assay, luciferase activity; format: cell-based; settings: 24, 48 and 72 hrs
Experimental: Cytotoxicity Assay—Taxol and LA1 cytotoxicity towards the CL66-luc tumor cell was determined by measuring luciferase activity in the tumor cells after exposure to LA1 or Taxol. CL66-luc cells (1,000 cells/well) were seeded into 96-well plates overnight at 37° C. prior to treatment with titrating concentrations of LA1 or Taxol dissolved in 1% DMSO in IDMEM for 24, 48 and 72 hrs. Cells treated with vehicle (1% DMSO in IDMEM) were a negative control. Media was aspirated from the cultured cells and 100 μL of a 150 μg/mL working solution of D-Luciferin in pre-warmed DMEM (10% FBS) was added to each well. The plates were incubated at 37° C. for 5 mins prior to reading luminescence using the EnSpire Plate Reader (PerkinElmer).

LLC lung tumor = assay: LA1 treatment of subcutaneous LLC tumors; format: in vivo, mice
Experimental: LA1 treatment of LLC: 7.5×10^5 LLC cells were injected subcutaneously (s.c.) into the right flank of syngeneic 6- to 8-week old WT or CD11b^−/− mice. At 5-8 days post tumor inoculation, tumor-bearing mice were divided into the following treatment groups: Vehicle (6% DMSO, 1% Tween-20 in saline), LA1 (6 mg/kg dissolved in vehicle). Vehicle and LA1 was administered by intraperitoneal injection (i.p.) daily. Tumor burden was evaluated 2-3 times a week by caliper measurements and tumor volumes were calculated using the equation (l^2×w)/2. Tumors were harvested at 3 weeks post-tumor inoculation, formalin fixed, cryopreserved in OCT, or collagenase-digested for flow cytometric analysis.
Immunohistochemistry—Tumor samples were collected and cryopreserved in O.C.T. Sections (5 μm) were fixed in 100% cold acetone, blocked with 8% normal goat serum for 2 hours, and incubated with primary antibodies at […] for 2 hours at room temperature. Sections were washed 3 times with PBS and incubated with fluorescent secondary antibodies. Primary antibodies where: F4/80 (BM8, eBioscience), CD4 (H129.19, BD Bioscience), CD8 (53-6.7, BD Bioscience), CD31 (MEC13.1, BD Bioscience), desmin (RB0914-P1, LabVision, Thermo Scientific), and anti-smooth muscle actin (SMA) (1A4, Sigma-Aldrich). Slides were counterstained with 4′,6-diamidino-2-phenylindole (DAPI) to identify nuclei. Immunofluorescence images were collected on a Nikon microscope (Eclipse TE2000-U) and analyzed using Metamorph image capture and analysis software (Version 6.3r5, Molecular Devices). Pixels/field or cell number/field were quantified in five 100× fields from 5 biological replicates. For LA1 studies, immunohistochemical staining was quantified by counting marker positive cells in 3 different areas analyzed at 40× using a light microscope for each tumor tissue (n=4−6). Tissues that were stained with fluorochrome conjugated secondary antibodies were counter stained with DAPI and analyzed using the Zeiss 700 LSM confocal microscope and Zen software (Carl Zeiss Group, Hartford, Conn.).
Alternatively, immunostaining was performed on formalin fixed, paraffin-embedded tumor tissues. Deparaffinized tissue sections (5 μm) were either stained with hemotoxylin-eosin or were subjected to antigen retrieval by steam heating in an acidic pH solution (Citrate-based, Vector Laboratories) prior to immune staining for α-SMA (clone 1A4, Fisher Scientific), MMP9 (polyclonal rabbit, Abcam), S100A8 (goat polyclonal (M-19), Santa Cruz), CD31 (clone RM0032-1D12, Abcam), or ARG1 (sc-18351, Santa Cruz) at 4° C. overnight. Sections were washed and incubated with the appropriate fluorochrome conjugated secondary antibody (Invitrogen Life Technologies, Grand Island, N.Y.) or biotinylated secondary antibodies diluted in blocking buffer for 1 hr. at RT. For sections that were stained with biotinylated secondary antibodies, signal development was accomplished by using the DAB Substrate Kit (Vector Laboratories).
Flow Cytometry Staining and Analysis—Single cell suspensions (10^6 cells in 100 μL total volume) were incubated with Aqua Live Dead fixable stain (Life Technologies, Carlsbad, Calif.), FcR-blocking reagent (BD Biosciences, San Jose, Calif.) and fluorescently labeled antibodies and incubated at 4° C. for 1 h. Primary antibodies were: BV605-F4/80 (clone BM8, Biolegend #123133, 1.25 μg/ml), Alexa 700-CD45 (clone 30-F11, eBioscience #56-0451, ×0.6 μg/ml), CD11b-APC (clone M1/70, eBioscience #17-0012, 0.3 μg/ml), FITC-Gr1 (clone RB6-8C5, eBioscience #11-5931, 3 μg/ml), eF780-CD3 (clone 145-2C11, eBioscience #47-0031, 5 μg/ml), PE-Dazzle-CD4 (clone RM4-5, Biolegend #100565, 0.4 μg/ml), and BV605-CD8 (clone 53-6.7, Biolegend #100743, 1.75 μg/ml). Multicolor FACS Analysis was performed on a BD Canto RUO 11 Color Analyzer. All data analysis was performed using the flow cytometry analysis program FloJo (Treestar).

LLC tumor cells = assay: Adoptive transfer of LA1-treated tumor associated macrophages co-implanted with LLC tumor cells; format: in vivo, mice; settings: tumor-derived macrophages treated with LA1, mixed 1:1 with LLC cells
Experimental: In vivo Macrophage Adoptive Transfer Experiments—F4/80+ cells were isolated from single cell suspensions of 700-800 mg LLC tumors from donor WT or Itgam−/− mice by FACS sorting. Primary bone marrow derived macrophages from WT or Itgam−/− mice were polarized and harvested into a single cell suspension. Alternatively, WT tumor derived macrophages were incubated with LA1 or saline. Purified macrophages were admixed 1:1 with LLC tumor cells and 5×10^5 total cells were injected subcutaneously into syngeneic host WT or Itgam−/− mice. Tumors were excised and weights were determined 14 days after inoculation.

SMILES: O=C(O)c1ccc(-c2ccc(/C=C3\SC(=S)N(Cc4ccccc4)C3=O)o2)cc1 [LA1, leukadherin 1]
- LLC or macrophage viability [1]: no direct effect on LLC or macrophage viability
- CL66-Luc breast tumor cell growth in vitro (CL66-luc tumor cell): no effect on CL66-Luc breast tumor cell growth in vitro
- LLC lung tumor growth in Itgam-/- mice (LLC lung tumor; LA1 6 mg/kg i.p. daily, Itgam-/- mice): not in Itgam−/− mice
- LLC lung tumor growth in WT mice (LLC lung tumor; LA1 6 mg/kg i.p. daily, WT mice): inhibited murine LLC lung tumor growth in WT
- CD8+ T cells in tumors (LLC lung tumor; LLC tumors): increased the presence of CD8+ T cells
- MHCII+ macrophages in tumors (LLC lung tumor; LLC tumors): increased the presence of MHCII+ macrophages
- expression of S100A8 and MMP9 in CD11b+ cells (LLC lung tumor; LLC tumors): inhibited expression of S100A8 and MMP9 in CD11b+ cells in LLC tumors
- numbers of SMA+ blood vessels in tumors (LLC lung tumor; tumors of FIGS. 5G, 5I and 5J (CL66, MDA-MB-231, LLC)): decreasing the numbers of SMA+blood vessels
- tumor growth after co-implantation of treated macrophages with LLC cells (LLC tumor cells): completely inhibited tumor growth
